Source: US6737383B1, “Herbicidal oxadiazolidines” (priority 1999, dated 2004)

How the values were obtained:
soybean = experiment: Test B pre/postemergence soybean; format: in vivo, Glycine max
Outline: (§1)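 Test chemicals in a non-phytotoxic solvent mixture with surfactant were sprayed preemergence onto planted seeds and postemergence onto plants 2 to 18 cm tall (1- to 4-leaf stage). After twelve to sixteen days in a greenhouse, injury was visually rated against untreated controls from 0 (no effect) to 10 (complete control).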

purple nutsedge = experiment: Test B pre/postemergence purple nutsedge; format: in vivo, Cyperus rotundus
Outline: as §1

wild oat = experiment: Test B pre/postemergence wild oat; format: in vivo, Avena fatua
Outline: as §1

crabgrass = experiment: Test B pre/postemergence crabgrass; format: in vivo, Digitaria sanguinalis
Outline: as §1

bedstraw = experiment: Test B pre/postemergence bedstraw; format: in vivo, Galium aparine
Outline: as §1

corn = experiment: Test B pre/postemergence corn; format: in vivo, Zea mays
Outline: as §1

sugar beet = experiment: Test B pre/postemergence sugar beet; format: in vivo, Beta vulgaris
Outline: as §1

surinam grass = experiment: Test B pre/postemergence surinam grass; format: in vivo, Brachiaria decumbens
Outline: as §1

cocklebur = experiment: Test B pre/postemergence cocklebur; format: in vivo, Xanthium strumarium
Outline: as §1

pigweed = experiment: Test B pre/postemergence pigweed; format: in vivo, Amaranthus retroflexus
Outline: as §1

morningglory = experiment: Test B pre/postemergence morningglory; format: in vivo, Ipomoea hederacea
Outline: as §1

velvetleaf = experiment: Test B pre/postemergence velvetleaf; format: in vivo, Abutilon theophrasti
Outline: as §1

blackgrass = experiment: Test B pre/postemergence blackgrass; format: in vivo, Alopecurus myosuroides
Outline: as §1

wheat = experiment: Test B pre/postemergence wheat; format: in vivo, Triticum aestivum
Outline: as §1

giant foxtail = experiment: Test B pre/postemergence giant foxtail; format: in vivo, Setaria faberii
Outline: as §1

rape = experiment: Test B pre/postemergence rape; format: in vivo, Brassica napus
Outline: as §1

[1] = Postemergence, Rate 62 g/ha, scale 0 to 10, 0 is no effect, 10 is complete control
[2] = Postemergence, Rate 125 g/ha, scale of 0 to 10 where 0 is no effect and 10 is complete control
[3] = Preemergence, Rate 62 g/ha, scale of 0 to 10 where 0 is no effect and 10 is complete control
[4] = Preemergence, Rate 125 g/ha, scale of 0 to 10 where 0 is no effect and 10 is complete control
[5] = Preemergence, Rate 250 g/ha, scale 0 (no effect) to 10 (complete control)
[6] = Rate 250 g/ha, Postemergence, scale 0 to 10, 0 is no effect, 10 is complete control
[7] = Rate 500 g/ha, Postemergence, scale 0 to 10, 0 is no effect, 10 is complete control
[8] = Preemergence, Rate 500 g/ha, scale of 0 to 10 where 0 is no effect and 10 is complete control

SMILES: CC(C)N(C(=O)n1oc(=O)n(CC(F)F)c1=O)c1ccc(F)cc1 [Compound 710]
- Plant response rating, Soybean (soybean; [1]): 3
- Soybean plant response rating (soybean; [2]): 4
- Soybean plant response rating (soybean; [3]): 0
- Plant response rating, Soybean (soybean; [4]): 0
- Soybean plant response rating (soybean; [5]): 3
- Soybean plant response rating (soybean; [6]): 4
- Soybean plant response rating (soybean; [7]): 5
- Plant response rating, Nutsedge (purple nutsedge; [1]): 0
- Nutsedge plant response rating (purple nutsedge; [2]): 0
- Plant response rating, Nutsedge (purple nutsedge; [4]): 0
- Nutsedge plant response rating (purple nutsedge; [5]): 0
- Nutsedge plant response rating (purple nutsedge; [6]): 0
- Nutsedge plant response rating (purple nutsedge; [7]): 3
- Plant response rating, Wild oats (wild oat; [1]): 1
- Wild oats plant response rating (wild oat; [2]): 3
- Wild oats plant response rating (wild oat; [3]): 8
- Plant response rating, Wild oats (wild oat; [4]): 9
- Wild oats plant response rating (wild oat; [5]): 9
- Wild oats plant response rating (wild oat; [6]): 5
- Wild oats plant response rating (wild oat; [7]): 6
- Plant response rating, Crabgrass (crabgrass; [1]): 8
- Crabgrass plant response rating (crabgrass; [2]): 9
- Crabgrass plant response rating (crabgrass; [3]): 10
- Plant response rating, Crabgrass (crabgrass; [4]): 10
- Crabgrass plant response rating (crabgrass; [5]): 10
- Crabgrass plant response rating (crabgrass; [6]): 9
- Crabgrass plant response rating (crabgrass; [7]): 9
- Bedstraw plant response rating (bedstraw; [2]): 1
- Bedstraw plant response rating (bedstraw; [3]): 3
- Plant response rating, Bedstraw (bedstraw; [4]): 3
- Bedstraw plant response rating (bedstraw; [5]): 5
- Plant response rating, Bedstraw (bedstraw; [8]): 7
- Bedstraw plant response rating (bedstraw; [6]): 6
- Bedstraw plant response rating (bedstraw; [7]): 8
- Plant response rating, Corn (corn; [1]): 0
- Corn plant response rating (corn; [2]): 0
- Corn plant response rating (corn; [3]): 0
- Plant response rating, Corn (corn; [4]): 0
- Corn plant response rating (corn; [5]): 0
- Corn plant response rating (corn; [6]): 0
- Corn plant response rating (corn; [7]): 2
- Plant response rating, Sugarbeets (sugar beet; [1]): 0
- Sugarbeets plant response rating (sugar beet; [2]): 0
- Sugarbeets plant response rating (sugar beet; [3]): 6
- Plant response rating, Sugarbeets (sugar beet; [4]): 6
- Sugarbeets plant response rating (sugar beet; [5]): 8
- Sugarbeets plant response rating (sugar beet; [6]): 3
- Sugarbeets plant response rating (sugar beet; [7]): 6
- Plant response rating, B. signalgrass (surinam grass; [1]): 5
- B. signalgrass plant response rating (surinam grass; [2]): 5
- B. signalgrass plant response rating (surinam grass; [3]): 8
- Plant response rating, B. signalgrass (surinam grass; [4]): 8
- B. signalgrass plant response rating (surinam grass; [5]): 8
- Plant response rating, B. signalgrass (surinam grass; [8]): 9
- B. signalgrass plant response rating (surinam grass; [6]): 6
- B. signalgrass plant response rating (surinam grass; [7]): 7
- Plant response rating, Cocklebur (cocklebur; [1]): 0
- Cocklebur plant response rating (cocklebur; [2]): 0
- Cocklebur plant response rating (cocklebur; [3]): 0
- Plant response rating, Cocklebur (cocklebur; [4]): 0
- Cocklebur plant response rating (cocklebur; [5]): 0
- Plant response rating, Cocklebur (cocklebur; [8]): 0
- Cocklebur plant response rating (cocklebur; [6]): 0
- Cocklebur plant response rating (cocklebur; [7]): 0
- Plant response rating, Redroot pigweed (pigweed; [1]): 8
- Redroot pigweed plant response rating (pigweed; [2]): 8
- Redroot pigweed plant response rating (pigweed; [3]): 8
- Plant response rating, Redroot pigweed (pigweed; [4]): 8
- Redroot pigweed plant response rating (pigweed; [5]): 10
- Redroot pigweed plant response rating (pigweed; [6]): 9
- Redroot pigweed plant response rating (pigweed; [7]): 9
- Plant response rating, Morningglory (morningglory; [1]): 4
- Morningglory plant response rating (morningglory; [2]): 4
- Morningglory plant response rating (morningglory; [3]): 0
- Plant response rating, Morningglory (morningglory; [4]): 0
- Morningglory plant response rating (morningglory; [5]): 0
- Morningglory plant response rating (morningglory; [6]): 4
- Morningglory plant response rating (morningglory; [7]): 8
- Plant response rating, Velvetleaf (velvetleaf; [1]): 5
- Velvetleaf plant response rating (velvetleaf; [2]): 6
- Velvetleaf plant response rating (velvetleaf; [3]): 5
- Plant response rating, Velvetleaf (velvetleaf; [4]): 6
- Velvetleaf plant response rating (velvetleaf; [5]): 7
- Velvetleaf plant response rating (velvetleaf; [6]): 6
- Velvetleaf plant response rating (velvetleaf; [7]): 6
- Plant response rating, Blackgrass (blackgrass; [1]): 5
- Blackgrass plant response rating (blackgrass; [2]): 6
- Blackgrass plant response rating (blackgrass; [3]): 9
- Plant response rating, Blackgrass (blackgrass; [4]): 9
- Blackgrass plant response rating (blackgrass; [5]): 9
- Plant response rating, Blackgrass (blackgrass; [8]): 10
- Blackgrass plant response rating (blackgrass; [6]): 6
- Blackgrass plant response rating (blackgrass; [7]): 6
- Plant response rating, Wheat (wheat; [1]): 0
- Wheat plant response rating (wheat; [2]): 0
- Wheat plant response rating (wheat; [3]): 5
- Plant response rating, Wheat (wheat; [4]): 6
- Wheat plant response rating (wheat; [5]): 7
- Wheat plant response rating (wheat; [6]): 4
- Wheat plant response rating (wheat; [7]): 6
- Plant response rating, Giant foxtail (giant foxtail; [1]): 8
- Giant foxtail plant response rating (giant foxtail; [2]): 8
- Giant foxtail plant response rating (giant foxtail; [3]): 10
- Plant response rating, Giant foxtail (giant foxtail; [4]): 10
- Giant foxtail plant response rating (giant foxtail; [5]): 10
- Giant foxtail plant response rating (giant foxtail; [6]): 9
- Giant foxtail plant response rating (giant foxtail; [7]): 9
- Plant response rating, Rape (rape; [1]): 0
- Rape plant response rating (rape; [2]): 0
- Rape plant response rating (rape; [3]): 7
- Plant response rating, Rape (rape; [4]): 8
- Rape plant response rating (rape; [5]): 8
- Rape plant response rating (rape; [6]): 3
- Rape plant response rating (rape; [7]): 5
